What is called Ki is the equilibrium dissociation constant of an inhibitor or competing ligand from its target. The kinact is the maximal first-order rate at which the target is inactivated.

Read-outs that look alike come from different tables or passages of the source.

In the assay the target is T1, hTG2 (Homo sapiens, UniProt P21980).
T1 sequence (P21980 1-687): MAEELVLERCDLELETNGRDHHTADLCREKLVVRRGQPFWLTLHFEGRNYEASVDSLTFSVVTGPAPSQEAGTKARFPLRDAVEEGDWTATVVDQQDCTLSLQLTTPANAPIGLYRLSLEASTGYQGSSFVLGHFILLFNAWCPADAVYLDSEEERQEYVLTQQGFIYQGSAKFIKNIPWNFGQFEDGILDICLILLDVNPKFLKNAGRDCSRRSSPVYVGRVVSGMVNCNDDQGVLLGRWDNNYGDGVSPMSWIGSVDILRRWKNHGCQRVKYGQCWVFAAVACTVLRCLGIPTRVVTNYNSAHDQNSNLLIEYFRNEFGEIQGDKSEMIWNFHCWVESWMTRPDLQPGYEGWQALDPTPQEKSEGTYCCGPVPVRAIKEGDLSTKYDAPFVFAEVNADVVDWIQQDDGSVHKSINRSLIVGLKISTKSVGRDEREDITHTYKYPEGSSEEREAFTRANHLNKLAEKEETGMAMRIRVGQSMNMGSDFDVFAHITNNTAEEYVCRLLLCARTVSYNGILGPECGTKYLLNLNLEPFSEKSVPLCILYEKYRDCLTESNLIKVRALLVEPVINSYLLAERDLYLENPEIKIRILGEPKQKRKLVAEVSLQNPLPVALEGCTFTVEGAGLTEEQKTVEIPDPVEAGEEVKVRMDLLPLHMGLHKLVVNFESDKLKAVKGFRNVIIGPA
The assay is described as follows: biochemical. Particulars: for Ki: read-out: KI (converted). How it is done: The ability of the compounds to inhibit TG2 transamidase activity and the kinetics of TG2 inhibition were investigated using a colorimetric activity assay, as follows:
Colorimetric transamidase activity assay. The activities of hTG1, hTG2 and hTG6 were measured via a colorimetric assay using the chromogenic substrate Cbz-Glu(γ-p-nitrophenyl ester)Gly (AL5), as described (Leblanc, A. et al., “Kinetic studies of guinea pig liver transglutaminase reveal a general-base-catalyzed deacylation mechanism.” Biochemistry 2001, 40 (28), 8335-8342). Assays were conducted at 25° C. in 50 mM MOPS buffer (pH 6.95) containing 7.5 mM CaCl2. […] The substrate AL5 was prepared in as a stock solution in DMSO such that the final concentration of this co-solvent was constant at 2.5% v/v. Stock solutions of the inhibitors were made in water ranging in concentration from 100-500 μM. The reaction was initiated with the addition of enzyme, 0.10 μM hTG1, 0.25 μM hTG2 (4.6 mU/mL) or 0.32 μM hTG6. Formation of hydrolysis product, p-nitrophenolate (pNP), was monitored at 405 nm in a polystyrene 96-well microplate using a BioTek Synergy 4 plate reader. The observed first-order rate constants of inactivation (kobs) were determined via non-linear regression fit to a mono-exponential model (Eqn 1) of absorbance versus time curves. These rate constants (kobs) were in turn fit to a saturation kinetics model (Eqn 2), by non-linear regression, providing the kinetic parameters kinact and KI, as previously described by Stone and Hofsteenge (Stone, S. R. and Hofsteenge, J., “Specificity of activated human protein C.” Biochem. J. 1985, 230 (2), 497-502). […] Experiments were completed in triplicate at minimum.
Fitting of this time-dependent inactivation to a monoexponential equation gave first-order rate constants, kobs. […] In some cases, the kinetic data were fitted to a linear double reciprocal equation.

[1] abbreviates: values determined using a double-reciprocal analysis.
Setting [2] is: values determined using a double-reciprocal analysis, read-out: kinact (converted).
Setting [3] is: values determined using a double-reciprocal analysis, read-out: kinact/KI (converted).
Setting [4] is: fit to saturation kinetics model, 25° C., pH 6.95, 100 μM AL5.
The mark [5] stands for this setting: fit to saturation kinetics model, 25° C., pH 6.95, 100 μM AL5, read-out: kinact (converted).
The mark [6] stands for this setting: fit to saturation kinetics model, 25° C., pH 6.95, 100 μM AL5, read-out: kinact/KI (converted).

In the case of `C=CC(=O)NCCCC[C@H](NC(=O)c1ccccn1)C(=O)N1CCN(C(=O)c2cccc3ccccc23)CC1` [Inhibitor 18, (S)-N-(1-(4-(1-Naphthoyl)piperazin-1-yl)-6-acrylamido-1-oxohexan-2-yl)picolinamide], the Ki under setting [1] was 41.4 ± 3.8 µM. Under setting [2], the kinact is 0.0065 s⁻¹. Further, under setting [3], the kinact/KI is 160 M⁻¹ s⁻¹.

Take `C=CC(=O)NCCCC[C@H](NC(=O)c1cccnc1)C(=O)N1CCN(C(=O)c2cccc3ccccc23)CC1` [Inhibitor 19, (S)-N-(1-(4-(1-naphthoyl)piperazin-1-yl)-6-acrylamido-1-oxohexan-2-yl)nicotinamide]: the Ki under setting [1] was 25.4 ± 2.8 µM. Further, under setting [2], the inactivation rate constant (kinact) was 0.00983 s⁻¹. For the same molecule, the kinact/KI under setting [3] is 388 M⁻¹ s⁻¹.

For the molecule `C=CC(=O)NCCCC[C@H](NC(=O)c1ccncc1)C(=O)N1CCN(C(=O)c2cccc3ccccc23)CC1` [Inhibitor 20, (S)-N-(1-(4-(1-naphthoyl)piperazin-1-yl)-6-acrylamido-1-oxohexan-2-yl)isonicotinamide], the Ki under setting [1] is 19.3 ± 4.3 µM. Besides, the kinact under setting [2] is 0.004 s⁻¹. Further, the kinact/KI under setting [3] is 212 M⁻¹ s⁻¹.

`C=CC(=O)NCCCC[C@H](NC(=O)c1nccn1C)C(=O)N1CCN(C(=O)c2cccc3ccccc23)CC1` [Inhibitor 21, (S)-N-(1-(4-(1-naphthoyl)piperazin-1-yl)-6-acrylamido-1-oxohexan-2-yl)-1-methyl-1H-imidazole-2-carboxamide]: the inhibition constant (Ki) under setting [4] was 15.7 ± 4.5 µM. For the same molecule, under setting [5], the kinact is 0.003 s⁻¹. For the same molecule, the kinact/KI under setting [6] was 192 M⁻¹ s⁻¹.

In the case of `C=CC(=O)NCCCC[C@H](NC(=O)c1cn(C)cn1)C(=O)N1CCN(C(=O)c2cccc3ccccc23)CC1` [Inhibitor 22, (S)-N-(1-(4-(1-naphthoyl)piperazin-1-yl)-6-acrylamido-1-oxohexan-2-yl)-1-methyl-1H-imidazole-4-carboxamide], the Ki under setting [4] is 22.3 ± 5 µM. For the same molecule, under setting [5], the maximal inactivation rate constant (kinact) was 0.00467 s⁻¹. The kinact/KI under setting [6] was 210 M⁻¹ s⁻¹.

For `C=CC(=O)NCCCC[C@H](NC(=O)C1C2CC3CC(C2)CC1C3)C(=O)N1CCN(C(=O)c2cccc3ccccc23)CC1` (stereo partly drawn) [Inhibitor 33, (1S,3S,5S,7S)-N-((S)-1-(4-(1-naphthoyl)piperazin-1-yl)-6-acrylamido-1-oxohexan-2-yl)adamantane-2-carboxamide], the inhibitory constant (Ki) under setting [4] is 15.3 ± 0.3 µM. Moreover, under setting [5], the maximal inactivation rate constant (kinact) is 0.00383 s⁻¹. For the same molecule, the kinact/KI under setting [6] is 248 M⁻¹ s⁻¹.

For the molecule `C=CC(=O)NCCCC[C@H](NC(=O)CC1CCCCC1)C(=O)N1CCN(C(=O)c2cccc3ccccc23)CC1` [Inhibitor 34, (S)-N-(6-(4-(1-naphthoyl)piperazin-1-yl)-5-(2-cyclohexylacetamido)-6-oxohexyl)acrylamide], the Ki under setting [4] was 12.2 ± 2.4 µM. Further, the kinact under setting [5] is 0.00433 s⁻¹. Moreover, under setting [6], the kinact/KI is 348 M⁻¹ s⁻¹.

As to `C=CC(=O)NCCCC[C@H](NC(=O)C1CCCCC1)C(=O)N1CCN(C(=O)c2cccc3ccccc23)CC1` [Inhibitor 35, (S)-N-(1-(4-(1-naphthoyl)piperazin-1-yl)-6-acrylamido-1-oxohexan-2-yl)cyclohexanecarboxamide], the inhibition constant (Ki) under setting [4] is 9.9 ± 1.3 µM. Besides, the maximal inactivation rate constant (kinact) under setting [5] was 0.0055 s⁻¹. Also, the kinact/KI under setting [6] was 560 M⁻¹ s⁻¹.

Take `C=CC(=O)NCCCC[C@H](NC(=O)C1CC1)C(=O)N1CCN(C(=O)c2cccc3ccccc23)CC1` [Inhibitor 36, (S)-N-(1-(4-(1-naphthoyl)piperazin-1-yl)-6-acrylamido-1-oxohexan-2-yl)cyclopropanecarboxamide]: the Ki under setting [4] is 10.6 ± 3.6 µM. The maximal inactivation rate constant (kinact) under setting [5] is 0.017 s⁻¹. Under setting [6], the kinact/KI was 1610 M⁻¹ s⁻¹.

Regarding `C=CC(=O)NCCCC[C@H](NC(=O)C(C)(C)C)C(=O)N1CCN(C(=O)c2cccc3ccccc23)CC1` [Inhibitor 37, (S)-N-(6-(4-(1-naphthoyl)piperazin-1-yl)-6-oxo-5-pivalamidohexyl)acrylamide], under setting [4], the Ki is 8.8 ± 3.6 µM. Further, under setting [5], the kinact was 0.00817 s⁻¹. Under setting [6], the kinact/KI is 937 M⁻¹ s⁻¹.

As for `C=CC(=O)NCCCC[C@H](NC(=O)CC(C)C)C(=O)N1CCN(C(=O)c2cccc3ccccc23)CC1` [Inhibitor 38, (S)-N-(1-(4-(1-naphthoyl)piperazin-1-yl)-6-acrylamido-1-oxohexan-2-yl)-3-methylbutanamide], under setting [4], the inhibition constant Ki was 9.7 ± 1.9 µM. For the same molecule, the kinact under setting [5] is 0.0107 s⁻¹. Besides, the kinact/KI under setting [6] was 1110 M⁻¹ s⁻¹.

For `C=CC(=O)NCCCC[C@H](NC(=O)C(C)C)C(=O)N1CCN(C(=O)c2cccc3ccccc23)CC1` [Inhibitor 39, (S)-N-(6-(4-(1-naphthoyl)piperazin-1-yl)-5-isobutyramido-6-oxohexyl)acrylamide], the Ki under setting [4] is 9.9 ± 1.4 µM. Also, the kinact under setting [5] is 0.0108 s⁻¹. Moreover, under setting [6], the kinact/KI is 1080 M⁻¹ s⁻¹.

As to `C=CC(=O)NCCCC[C@H](NC(=O)CC)C(=O)N1CCN(C(=O)c2cccc3ccccc23)CC1` [Inhibitor 40, (S)-N-(6-(4-(1-naphthoyl)piperazin-1-yl)-6-oxo-5-propionamidohexyl)acrylamide], under setting [4], the Ki is 5.1 ± 1 µM. In addition, the inactivation rate constant (kinact) under setting [5] is 0.00883 s⁻¹. In addition, under setting [6], the kinact/KI was 1720 M⁻¹ s⁻¹.

Regarding `C=CC(=O)NCCCC[C@H](NC(C)=O)C(=O)N1CCN(C(=O)c2cccc3ccccc23)CC1` [Inhibitor 41, (S)-N-(6-(4-(1-naphthoyl)piperazin-1-yl)-5-acetamido-6-oxohexyl)acrylamide], the kinact is 0.0242 s⁻¹ and the kinact/KI is 735 M⁻¹ s⁻¹. For the same molecule, the Ki under setting [1] was 33 ± 14.5 µM.

For the molecule `C=CC(=O)NCCCC[C@H](NC(=O)c1ccccc1)C(=O)N1CCN(C(=O)c2cccc3ccccc23)CC1` [Inhibitor 61, (S)-N-(1-(4-(1-naphthoyl)piperazin-1-yl)-6-acrylamido-1-oxohexan-2-yl)benzamide], the inactivation rate constant (kinact) is 0.0118 s⁻¹ and the kinact/KI is 983 M⁻¹ s⁻¹. Further, the Ki under setting [4] is 27.6 ± 8.1 µM. For the same molecule, the kinact/KI (pH 6.95) is 807 M⁻¹ s⁻¹. Also, the Ki under setting [1] was 12 µM.

Take `C=CC(=O)NCCCC[C@H](NC(=O)c1ccccc1F)C(=O)N1CCN(C(=O)c2cccc3ccccc23)CC1` [Inhibitor 62, (S)-N-(1-(4-(1-naphthoyl)piperazin-1-yl)-6-acrylamido-1-oxohexan-2-yl)-2-fluorobenzamide]: the inhibition constant Ki under setting [4] was 10 ± 2.6 µM. In addition, the kinact under setting [5] was 0.0065 s⁻¹. Moreover, the kinact/KI under setting [6] is 657 M⁻¹ s⁻¹.

Turning to `C=CC(=O)NCCCC[C@H](NC(=O)c1cccc(F)c1)C(=O)N1CCN(C(=O)c2cccc3ccccc23)CC1` [Inhibitor 63, (S)-N-(1-(4-(1-naphthoyl)piperazin-1-yl)-6-acrylamido-1-oxohexan-2-yl)-3-fluorobenzamide], the inhibition constant (Ki) under setting [4] is 13.4 ± 3.5 µM and the Ki under setting [1] is 9.9 µM. The kinact reads like this: under setting [5], 0.0107 s⁻¹; under setting [2], 0.0085 s⁻¹. For the same molecule, the kinact/KI is, setting by setting: under setting [6], 797 M⁻¹ s⁻¹; under setting [3], 860 M⁻¹ s⁻¹.

Consider `C=CC(=O)NCCCC[C@H](NC(=O)c1ccc(F)cc1)C(=O)N1CCN(C(=O)c2cccc3ccccc23)CC1` [Inhibitor 64, (S)-N-(1-(4-(1-naphthoyl)piperazin-1-yl)-6-acrylamido-1-oxohexan-2-yl)-4-fluorobenzamide], for which the Ki under setting [4] is 16.2 ± 7.5 µM and the Ki under setting [1] was 11.6 µM. For the same molecule, the kinact was 0.015 s⁻¹ under setting [5] and 0.0117 s⁻¹ under setting [2]. For the same molecule, the kinact/KI was 923 M⁻¹ s⁻¹ under setting [6] and 1010 M⁻¹ s⁻¹ under setting [3].

Source of the values: patent US20240383869A1, “ARYLACETYL INHIBITORS OF TG2 AND USES THEREOF” (UNIVERSITY OF OTTAWA, priority 2021, published 2024).
